Reference: the supplement of paper PMC3937590

Tests used:
Test in all cases: -log10 GI50 (growth inhibition 50%) (-log10(M)); higher = more potent growth inhibition
184A1 = test system: 184A1
Outline: (§1)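 The reported figure is the negative logarithm of GI50, defined as the molar concentration that produces the set level of growth inhibition. The logarithm is base 10. It comes from a Gompertz curve fitted by nonlinear least squares to 72-hour luminescence data from breast cancer cell lines given nine doses in 1:5 serial dilution, in triplicate, with a time-zero plate as reference. A < qualifier marks values equal to the top dose.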

184B5 = test system: 184B5
Outline: as §1

600MPE = test system: 600MPE
Outline: as §1

AU565 = test system: AU565
Outline: as §1

BT20 = test system: BT20
Outline: as §1

BT474 = test system: BT474
Outline: as §1

BT483 = test system: BT483
Outline: as §1

BT549 = test system: BT549
Outline: as §1

CAMA1 = test system: CAMA1
Outline: as §1

HCC1143 = test system: HCC1143
Outline: as §1

HCC1187 = test system: HCC1187
Outline: as §1

HCC1395 = test system: HCC1395
Outline: as §1

HCC1419 = test system: HCC1419
Outline: as §1

HCC1428 = test system: HCC1428
Outline: as §1

HCC1569 = test system: HCC1569
Outline: as §1

HCC1806 = test system: HCC1806
Outline: as §1

HCC1937 = test system: HCC1937
Outline: as §1

HCC1954 = test system: HCC1954
Outline: as §1

HCC202 = test system: HCC202
Outline: as §1

HCC2185 = test system: HCC2185
Outline: as §1

HCC3153 = test system: HCC3153
Outline: as §1

HCC38 = test system: HCC38
Outline: as §1

HCC70 = test system: HCC70
Outline: as §1

HS578T = test system: HS578T
Outline: as §1

LY2 = test system: LY2
Outline: as §1

MCF10A = test system: MCF10A
Outline: as §1

MCF10F = test system: MCF10F
Outline: as §1

MCF12A = test system: MCF12A
Outline: as §1

MCF7 = test system: MCF7
Outline: as §1

MDAMB134VI = test system: MDAMB134VI
Outline: as §1

MDAMB157 = test system: MDAMB157
Outline: as §1

MDAMB175VII = test system: MDAMB175VII
Outline: as §1

MDAMB231 = test system: MDAMB231
Outline: as §1

MDAMB361 = test system: MDAMB361
Outline: as §1

MDAMB415 = test system: MDAMB415
Outline: as §1

MDAMB453 = test system: MDAMB453
Outline: as §1

MX1 = test system: MX1
Outline: as §1

SKBR3 = test system: SKBR3
Outline: as §1

SUM1315MO2 = test system: SUM1315MO2
Outline: as §1

SUM149PT = test system: SUM149PT
Outline: as §1

SUM159PT = test system: SUM159PT
Outline: as §1

SUM185PE = test system: SUM185PE
Outline: as §1

SUM225CWN = test system: SUM225CWN
Outline: as §1

SUM229PE = test system: SUM229PE
Outline: as §1

SUM52PE = test system: SUM52PE
Outline: as §1

T47D_KBluc = test system: T47D_KBluc
Outline: as §1

T47D = test system: T47D
Outline: as §1

UACC812 = test system: UACC812
Outline: as §1

ZR751 = test system: ZR751
Outline: as §1

ZR75B = test system: ZR75B
Outline: as §1

21MT1 = test system: 21MT1
Outline: as §1

21NT = test system: 21NT
Outline: as §1

HBL100 = test system: HBL100
Outline: as §1

## CCNCCCCNCCCCNCCCCNCCCCNC/C=C/CNCCCCNCCCCNCCCCNCCCCNCC
184A1
  -log10 GI50: 6.32
184B5
  -log10 GI50: 5.62
600MPE
  -log10 GI50: 6.49
AU565
  -log10 GI50: 6.31
BT20
  -log10 GI50: 6.66
BT474
  -log10 GI50: 6.02
BT483
  -log10 GI50: 6.25
BT549
  -log10 GI50: 6.53
CAMA1
  -log10 GI50: 6.43
HCC1143
  -log10 GI50: 6.88
HCC1187
  -log10 GI50: 6.15
HCC1395
  -log10 GI50: 6.3
HCC1419
  -log10 GI50: 6.51
HCC1428
  -log10 GI50: 6.33
HCC1569
  -log10 GI50: 4.74
HCC1806
  -log10 GI50: 6.71
HCC1937
  -log10 GI50: 4.95
HCC1954
  -log10 GI50: 6.57
HCC202
  -log10 GI50: 6.28
HCC2185
  -log10 GI50: 6.6
HCC3153
  -log10 GI50: 6.72
HCC38
  -log10 GI50: 6.81
HCC70
  -log10 GI50: 6.55
HS578T
  -log10 GI50: 4.93
LY2
  -log10 GI50: 5.18
MCF10A
  -log10 GI50: 5.9
MCF10F
  -log10 GI50: 5.96
MCF12A
  -log10 GI50: 6.2
MCF7
  -log10 GI50: 6.33
MDAMB134VI
  -log10 GI50: 6.38
MDAMB157
  -log10 GI50: 6.97
MDAMB175VII
  -log10 GI50: 6.79
MDAMB231
  -log10 GI50: 4.67
MDAMB361
  -log10 GI50: 5.78
MDAMB415
  -log10 GI50: 6.63
MDAMB453
  -log10 GI50: 6.28
MX1
  -log10 GI50: 6.57
SKBR3
  -log10 GI50: 5.31
SUM1315MO2
  -log10 GI50: 5.69
SUM149PT
  -log10 GI50: 6.53
SUM159PT
  -log10 GI50: 6.6
SUM185PE
  -log10 GI50: 6.68
SUM225CWN
  -log10 GI50: 5.49
SUM229PE
  -log10 GI50: 6.24
SUM52PE
  -log10 GI50: 6.81
T47D_KBluc
  -log10 GI50: 6.46
T47D
  -log10 GI50: 6.97
UACC812
  -log10 GI50: 6.78
ZR751
  -log10 GI50: 6.82
ZR75B
  -log10 GI50: 6.38

## C[C@@H](Oc1cc(-c2cnn(C3CCNCC3)c2)cnc1N)c1c(Cl)ccc(F)c1Cl
184A1
  -log10 GI50: 5.78
184B5
  -log10 GI50: 5.42
21MT1
  -log10 GI50: 5.23
21NT
  -log10 GI50: 5.18
600MPE
  -log10 GI50: 6.21
AU565
  -log10 GI50: 5.55
BT20
  -log10 GI50: 5.42
BT474
  -log10 GI50: 5.11
BT549
  -log10 GI50: 5.44
CAMA1
  -log10 GI50: 5.23
HCC1143
  -log10 GI50: 5.7
HCC1187
  -log10 GI50: 7.24
HCC1395
  -log10 GI50: 5.37
HCC1419
  -log10 GI50: 4.73
HCC1428
  -log10 GI50: 5.13
HCC1569
  -log10 GI50: 5.68
HCC1806
  -log10 GI50: 6.11
HCC1937
  -log10 GI50: 5.25
HCC1954
  -log10 GI50: 5.45
HCC2185
  -log10 GI50: 5.18
HCC3153
  -log10 GI50: 5.16
HCC38
  -log10 GI50: 5.63
HCC70
  -log10 GI50: 5.46
HS578T
  -log10 GI50: 5.85
LY2
  -log10 GI50: 5.8
MCF10A
  -log10 GI50: 5.59
MCF10F
  -log10 GI50: 5.61
MCF12A
  -log10 GI50: 5.38
MCF7
  -log10 GI50: 5.91
MDAMB134VI
  -log10 GI50: 5.57
MDAMB157
  -log10 GI50: 5.71
MDAMB175VII
  -log10 GI50: 5.23
MDAMB231
  -log10 GI50: 5.47
MDAMB361
  -log10 GI50: 5.44
MDAMB415
  -log10 GI50: 5.69
MDAMB453
  -log10 GI50: 5.59
MX1
  -log10 GI50: 5.84
SKBR3
  -log10 GI50: 5.14
SUM1315MO2
  -log10 GI50: 5.24
SUM149PT
  -log10 GI50: 5.7
SUM159PT
  -log10 GI50: 5.79
SUM185PE
  -log10 GI50: 5.33
SUM229PE
  -log10 GI50: 5.57
SUM52PE
  -log10 GI50: 6.28
T47D_KBluc
  -log10 GI50: 5.31
T47D
  -log10 GI50: 5.34
UACC812
  -log10 GI50: 5.02
ZR751
  -log10 GI50: 5.44
ZR75B
  -log10 GI50: 5.64

## O=C1c2ccccc2-[n+]2ccc3c([nH]c4ccccc43)c21 [Fascaplysin]
184A1
  -log10 GI50: 6.4
184B5
  -log10 GI50: 6.53
600MPE
  -log10 GI50: 6.55
AU565
  -log10 GI50: 6.95
BT20
  -log10 GI50: 6.51
BT474
  -log10 GI50: 6.73
BT483
  -log10 GI50: 7.18
BT549
  -log10 GI50: 6.28
CAMA1
  -log10 GI50: 6.61
HBL100
  -log10 GI50: 6.26
HCC1143
  -log10 GI50: 6.56
HCC1187
  -log10 GI50: 7.83
HCC1395
  -log10 GI50: 6.49
HCC1419
  -log10 GI50: 6.58
HCC1428
  -log10 GI50: 7.43
HCC1569
  -log10 GI50: 6.33
HCC1806
  -log10 GI50: 6.59
HCC1937
  -log10 GI50: 6.41
HCC1954
  -log10 GI50: 6.57
HCC202
  -log10 GI50: 7.37
HCC2185
  -log10 GI50: 6.9
HCC3153
  -log10 GI50: 6.55
HCC38
  -log10 GI50: 6.56
HCC70
  -log10 GI50: 6.9
HS578T
  -log10 GI50: 5.98
LY2
  -log10 GI50: 8.1
MCF10A
  -log10 GI50: 6.43
MCF10F
  -log10 GI50: 6.58
MCF12A
  -log10 GI50: 6.45
MCF7
  -log10 GI50: 6.72
MDAMB134VI
  -log10 GI50: 6.65
MDAMB157
  -log10 GI50: 6.77
MDAMB175VII
  -log10 GI50: 6.68
MDAMB231
  -log10 GI50: 6.6
MDAMB361
  -log10 GI50: 7.09
MDAMB415
  -log10 GI50: 7.22
MDAMB453
  -log10 GI50: 7.06
MX1
  -log10 GI50: 6.53
SKBR3
  -log10 GI50: 6.65
SUM1315MO2
  -log10 GI50: 6.38
SUM149PT
  -log10 GI50: 6.4
SUM159PT
  -log10 GI50: 6.37
SUM185PE
  -log10 GI50: 7.26
SUM225CWN
  -log10 GI50: 7.25
SUM229PE
  -log10 GI50: 6.51
SUM52PE
  -log10 GI50: 6.74
T47D_KBluc
  -log10 GI50: 7.31
T47D
  -log10 GI50: 6.34
ZR751
  -log10 GI50: 6.45
ZR75B
  -log10 GI50: 6.39
